Measurements as given in ChEMBL document CHEMBL1149613, “Characterized mechanism of alpha-mangostin-induced cell death: caspase-independent apoptosis with release of endonuclease-G from mitochondria and increased miR-143 expression in human colorectal cancer DLD-1 cells” (Bioorg Med Chem, 2007).
pIC50: −log10 of the molar value. Active and inactive are the calls of the source. The rule behind the calls is not given here.

What was measured:
Type in all cases: functional, cell-based
DLD-1 [1] = experiment: Growth inhibition of human DLD1 cells
DLD-1 [2] = experiment: Induction of apoptosis in human DLD1 cells assessed as release of endonuclease-G after 6 hrs by Western blot
DLD-1 [3] = experiment: Apoptotic activity in human DLD1 cells at 15 uM after 24 hrs by Trypan blue exclusion test
DLD-1 [4] = experiment: Cytotoxicity against human DLD1 cells after 24 hrs by Trypan blue exclusion test; conditions: DLD-1, 24 h
DLD-1 [5] = experiment: Reduction in cMyc level in human DLD1 cells by Western blot
DLD-1 [6] = experiment: Induction of apoptosis in human DLD1 cells assessed as activation of bcl2 at 20 uM by Western blot
DLD-1 [7] = experiment: Cytotoxicity against human DLD1 cells at 2 uM after 24 hrs by Trypan blue exclusion test
DLD-1 [8] = experiment: Effect on ERK5 mRNA expression levels in human DLD1 cells by semi-qRT PCR
DLD-1 [9] = experiment: Induction of apoptosis in human DLD1 cells assessed as activation of caspase-3 at 20 uM by Western blot
DLD-1 [10] = experiment: Decrease in Erk5 expression levels in human DLD1 cells by Western blot
DLD-1 [11] = experiment: Induction of apoptosis in human DLD1 cells assessed as release of endonuclease-G at 20 uM after 6 to 24 hrs by Western blot
DLD-1 [12] = experiment: Induction of apoptosis in human DLD1 cells assessed as release of apoptosis-inducing factor at 20 uM after 6 to 24 hrs by Western blot
DLD-1 [13] = experiment: Cytotoxicity against human DLD1 cells assessed as decrease in cell number at 20 uM after 24 hrs by Trypan blue exclusion test
DLD-1 [14] = experiment: Increase in p-p38 levels in human DLD1 cells after 1 to 3 hrs by Western blot
DLD-1 [15] = experiment: Induction of apoptosis in human DLD1 cells assessed as activation of bax protein at 20 uM by Western blot
DLD-1 [16] = experiment: Induction of apoptosis in human DLD1 cells assessed as activation of pan-caspase at 20 uM by Western blot

Structure (SMILES)	pIC50 (DLD-1 [1])	Activity (DLD-1 [2])	Activity (DLD-1 [3])	pIC50 (DLD-1 [4])	Activity (DLD-1 [5])	Activity (DLD-1 [6])	Activity (DLD-1 [7])	Activity (DLD-1 [8])	Activity (DLD-1 [9])	Activity (DLD-1 [10])	Activity (DLD-1 [11])	Activity (DLD-1 [12])	Activity (DLD-1 [13])	Activity (DLD-1 [14])	Activity (DLD-1 [15])	Activity (DLD-1 [16])
O=c1[nH]cc(F)c(=O)[nH]1 [FLUOROURACIL]	5.35	–	–	–	–	–	–	–	–	–	–	–	–	–	–	–
COc1c(O)cc2oc3cc(O)c(CC=C(C)C)c(O)c3c(=O)c2c1CC=C(C)C [MANGOSTIN]	–	Dose-dependent effect	Active	5.12	Active	inactive	Active	inactive	inactive	Active	Active	inactive	Active	Active	inactive	inactive
